Reference: patent US20260078108A1, “SOLID FORMS OF A ROCK INHIBITOR” (REDX PHARMA PLC, priority 2022, published 2026)
Where a name gives a salt, the structure may show the parent alone. Values belong to the compound of their own block, whether it stands above or below them.

Columns and labels:
Assay type in all cases: physicochemical
[1] = 7-day stability testing of solid forms (HPLC purity, XRPD)
Description: About 10 mg of freebase Form I, HCl salt Form II, Succinate Form I and received HCl salt Form I were placed at 60° C./capped and 40° C./75% RH (open), respectively. Samples were prepared in duplicate for each condition. At day 0 and day 7, the samples were analyzed by HPLC and XRPD to check the purity and crystal form, respectively.

[2] = Longer term stability of HCl salt form II (HPLC, XRPD; 1 and 3 months)
Description: Samples were prepared in duplicate for each condition. At day 0 and at 1 month, and 3 months, the samples were analyzed by HPLC and XRPD to check the purity and crystal form, respectively.

[3] = Solubility testing in water, SGF, FaSSIF, FeSSIF at 37° C.; settings: for Solubility in SGF (in words): comparison with HCl Salt Form 1
Description: About 15 mg of sample was weighed into each sample vial and then 3.0 mL of water, simulated gastric fluid (SGF), Fasted State Simulated Intestinal Fluid (FaSSIF) or Fed State Simulated Intestinal Fluid (FeSSIF) media was added. Samples were prepared in triplicate for each media. The suspensions were kept shaking at 37° C. for up to 24 h. At 0.5, 2 and 24 h, suspensions were filtered and the filtrate was analyzed by HPLC.

[4] = 25° C.±2° C., 60% RH±5% RH, T1 month
[5] = 25° C.±2° C., 60% RH±5% RH, T3 month
[6] = 40° C.±2° C., 74% RH±5% RH, T1 month
[7] = 40° C.±2° C., 74% RH±5% RH, T3 month
[8] = FaSSIF (pH of media 6.5), 37° C., 0.5 h
[9] = FaSSIF (pH of media 6.5), 37° C., 2 h
[10] = FaSSIF (pH of media 6.5), 37° C., 24 h
[11] = FeSSIF (pH of media 5.0), 37° C., 0.5 h
[12] = FeSSIF (pH of media 5.0), 37° C., 2 h
[13] = SGF (pH of media 1.2), 37° C., 0.5 h
[14] = SGF (pH of media 1.2), 37° C., 2 h
[15] = SGF (pH of media 1.2), 37° C., 24 h
[16] = Water (pH of media 7.9), 37° C., 0.5 h
[17] = Water (pH of media 7.9), 37° C., 2 h
[18] = Water (pH of media 7.9), 37° C., 24 h
[19] = pH of sample in FaSSIF (pH of media 6.5), 0.5 h
[20] = pH of sample in FaSSIF (pH of media 6.5), 2 h
[21] = pH of sample in FaSSIF (pH of media 6.5), 24 h
[22] = pH of sample in FeSSIF (pH of media 5.0), 0.5 h
[23] = pH of sample in FeSSIF (pH of media 5.0), 2 h
[24] = pH of sample in FeSSIF (pH of media 5.0), 24 h
[25] = pH of sample in SGF (pH of media 1.2), 0.5 h
[26] = pH of sample in SGF (pH of media 1.2), 2 h
[27] = pH of sample in SGF (pH of media 1.2), 24 h
[28] = pH of sample in Water (pH of media 7.9), 0.5 h
[29] = pH of sample in Water (pH of media 7.9), 2 h
[30] = pH of sample in Water (pH of media 7.9), 24 h
[31] = FeSSIF (pH of media 5.0), 37° C., 24 h

Purity (area %) ([1]; Day 0, HPLC, listed as HCI salt Form II): 98.65 area %
XRPD (crystal form) ([1]; Day 7, 40° C./75% RH (open)): No change
Purity (area %) ([1]; Day 7, 40° C./75% RH (open), HPLC, listed as HCI salt Form II): 98.48 area %
Decrease in purity versus Day 0 ([1]; Day 7, 40° C./75% RH (open), listed as HCI salt Form II): 0.2 area %
XRPD (crystal form) ([1]; Day 7, 60° C./capped): No change
Purity (area %) ([1]; Day 7, 60° C./capped, HPLC, listed as HCI salt Form II): 98.45 area %
Decrease in purity versus Day 0 ([1]; Day 7, 60° C./capped, listed as HCI salt Form II): 0.2 area %
Assay by HPLC (water and solvent free)(area) ([2]; 25° C.±2° C., 60% RH±5% RH, T0): 101.6%
Polymorphism by XRPD ([2]; 25° C.±2° C., 60% RH±5% RH, T0): Form II
Total impurities by HPLC ([2]; 25° C.±2° C., 60% RH±5% RH, T0): impurities: 1.0%
Water Content ([2]; 25° C.±2° C., 60% RH±5% RH, T0): 1.8%
Assay by HPLC (water and solvent free)(area) [2, 4]: 101.4%
Polymorphism by XRPD [2, 4]: Form II
Total impurities by HPLC [2, 4]: impurities: 1.1%
Water Content [2, 4]: 1.6%
Assay by HPLC (water and solvent free)(area) [2, 5]: 101.2%
Polymorphism by XRPD [2, 5]: Form II
Total impurities by HPLC [2, 5]: impurities: 1.0%
Water Content [2, 5]: 1.4%
Assay by HPLC (water and solvent free)(area) ([2]; 40° C.±2° C., 74% RH±5% RH, T0): 101.6%
Polymorphism by XRPD ([2]; 40° C.±2° C., 74% RH±5% RH, T0): Form II
Total impurities by HPLC ([2]; 40° C.±2° C., 74% RH±5% RH, T0): impurities: 1.0%
Water Content ([2]; 40° C.±2° C., 74% RH±5% RH, T0): 1.8%
Assay by HPLC (water and solvent free)(area) [2, 6]: 101.4%
Polymorphism by XRPD [2, 6]: Form II
Total impurities by HPLC [2, 6]: impurities: 1.1%
Water Content [2, 6]: 1.5%
Assay by HPLC (water and solvent free)(area) [2, 7]: 101.4%
Polymorphism by XRPD [2, 7]: Form II
Total impurities by HPLC [2, 7]: impurities: 1.1%
Water Content [2, 7]: 1.5%
Solubility [3, 8]: 19 µg/mL
Solubility [3, 9]: 23 µg/mL
Solubility [3, 10]: 6 µg/mL
Solubility [3, 11]: 64 µg/mL
Solubility [3, 12]: 69 µg/mL
solubility at 24 h ([3]; Fed State Simulated Intestinal Fluid (FeSSIF), 37 °C, pH 5, fessif, thermodynamic from solid, FeSSIF (pH of media 5.0), 24 h): 57 µg/mL
Solubility [3, 13]: 2550 µg/mL
Solubility [3, 14]: 2591 µg/mL
Solubility [3, 15]: 3372 µg/mL
Solubility in SGF (in words) [3]: more soluble in SGF than HCl Salt Form 1
Solubility [3, 16]: 716 µg/mL
Solubility [3, 17]: 696 µg/mL
Solubility [3, 18]: 919 µg/mL
pH [3, 19]: 6.4
pH [3, 20]: 6.4
pH [3, 21]: 6.4
pH [3, 22]: 4.9
pH [3, 23]: 4.9
pH [3, 24]: 4.9
pH [3, 25]: 1.2
pH [3, 26]: 1.4
pH [3, 27]: 1.4
pH [3, 28]: 4.9
pH [3, 29]: 4.8
pH [3, 30]: 6.0
Compound: NCc1ccc(C(=O)Nc2ccncc2F)cc1-c1cccc(C(=O)Nc2ccc(SC[C@H]3CCOC3=O)cc2)c1 [HCl salt Form II]
Longer term stability (in words) ([2]; 25° C./60% RH and accelerated 40° C./75% RH): stable for up to 3 months even under accelerated conditions

Solubility [3, 8]: 23 µg/mL
Solubility [3, 9]: 5 µg/mL
Solubility (mg/mL) [3, 10]: <LOD
Solubility [3, 11]: 83 µg/mL
Solubility [3, 12]: 91 µg/mL
Solubility [3, 31]: 66 µg/mL
Solubility [3, 13]: 780 µg/mL
Solubility [3, 14]: 841 µg/mL
Solubility [3, 15]: 1355 µg/mL
Solubility [3, 16]: 680 µg/mL
Solubility [3, 17]: 771 µg/mL
Solubility [3, 18]: 1411 µg/mL
pH [3, 19]: 6.4
pH [3, 20]: 6.4
pH [3, 21]: 6.4
pH [3, 22]: 4.9
pH [3, 23]: 4.9
pH [3, 24]: 4.9
pH [3, 25]: 1.4
pH [3, 26]: 1.4
pH [3, 27]: 1.4
pH [3, 28]: 5.6
pH [3, 29]: 5.7
pH [3, 30]: 5.8
Compound: NCc1ccc(C(=O)Nc2ccncc2F)cc1-c1cccc(C(=O)Nc2ccc(SC[C@H]3CCOC3=O)cc2)c1 (stereo in doubt) [HCl salt Form I]

Purity (area %) ([1]; Day 0, HPLC): 97.46 area %
Decrease in purity versus Day 0 ([1]; Day 7, 40° C./75% RH (open)): 0.2 area %
XRPD (crystal form) ([1]; Day 7, 40° C./75% RH (open)): No change
Purity (area %) ([1]; Day 7, 40° C./75% RH (open), HPLC): 97.29 area %
Decrease in purity versus Day 0 ([1]; Day 7, 60° C./capped): 0.5 area %
XRPD (crystal form) ([1]; Day 7, 60° C./capped): No change
Purity (area %) ([1]; Day 7, 60° C./capped, HPLC): 96.98 area %
Solubility [3, 8]: 5 µg/mL
Solubility [3, 9]: 2 µg/mL
Solubility [3, 10]: 1 µg/mL
Solubility [3, 11]: 188 µg/mL
Solubility [3, 12]: 173 µg/mL
Solubility [3, 31]: 46 µg/mL
Solubility [3, 13]: 3837 µg/mL
Solubility [3, 14]: 3826 µg/mL
Solubility [3, 15]: 4005 µg/mL
Solubility in SGF (in words) [3]: more soluble in SGF than HCl Salt Form 1
Solubility [3, 17]: 328 µg/mL
Solubility [3, 18]: 546 µg/mL
pH [3, 19]: 5.7
pH [3, 20]: 5.7
pH [3, 21]: 5.6
pH [3, 22]: 4.8
pH [3, 23]: 4.8
pH [3, 24]: 4.8
pH [3, 25]: 1.3
pH [3, 26]: 1.4
pH [3, 27]: 1.3
pH [3, 28]: 4.3
pH [3, 29]: 4.2
pH [3, 30]: 4.1
solubility at 0.5 h ([3]; water, 37 °C, pH 7.9, water, thermodynamic from solid, Water (pH of media 7.9), 0.5 h): 363 µg/mL
Compound: NCc1ccc(C(=O)Nc2ccncc2F)cc1-c1cccc(C(=O)Nc2ccc(SC[C@H]3CCOC3=O)cc2)c1 [Succinate Form I]
